In patent publication US20250145633A1, “SUBSTITUTED FURANOPYRIMIDINE COMPOUNDS AS PDE1 INHIBITORS” (Dart NeuroScience, LLC, priority 2017, published 2025):

Molecular target: human PDE1B enzyme (Homo sapiens (Human), UniProt Q01064)
Assay: IMAP TR-FRET PDE1B enzymatic assay
Assay type: biochemical
Settings: negative log of half-maximal molar inhibitory concentration, 200 nM FAM-cAMP, values given as bins; for IC50: read-out: PDE1b (pIC50) (converted)
Method in brief: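 Full-length GST-tagged human PDE1B (250 pg/well) in IMAP BSA buffer with 10 U/ml calmodulin and 2.5 mM CaCl2; compound pre-incubated 5 min at room temperature, then 200 nM (final) FAM-cAMP for 30 min. IMAP binding reagent/Tb added, 1 h; TR-FRET 520/490 ratio read. IC50 from sigmoidal dose-response fit.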

SMILES | IC50 [nM] | PDE1b (pIC50)
Cc1oc2ncnc(NC3(C)CC3)c2c1C(=O)NC1(C2CCOCC2)CC1 [Example 300, 6-Methyl-4-[(1-methylcyclopropyl)amino]-N-[1-(oxan-4-yl)cyclopropyl]furo[2,3-d]pyrimidine-5-carboxamide] | 10 to 100 | –
Cc1oc2ncnc(NC3(C)CC3)c2c1C(=O)N1CCC(c2ccccn2)CC1 [Example 301, 6-Methyl-N-(1-methylcyclopropyl)-5-[4-(pyridin-2-yl)piperidine-1-carbonyl]furo[2,3-d]pyrimidin-4-amine] | – | >8
Cc1oc2ncnc(NC3(C)CC3)c2c1C(=O)NC(C)c1ncc(F)cn1 (stereo not shown) [Example 302, N-[1-(5-Fluoropyrimidin-2-yl)ethyl]-6-methyl-4-[(1-methylcyclopropyl)amino]furo[2,3-d]pyrimidine-5-carboxamide] | 10 to 100 | –
Cc1oc2ncnc(NC3(C)CC3)c2c1C(=O)N1CCc2nc(F)ncc2C1 [Example 303, 5-{2-Fluoro-5H,6H,7H,8H-pyrido[4,3-d]pyrimidine-6-carbonyl}-6-methyl-N-(1-methylcyclopropyl)furo[2,3-d]pyrimidin-4-amine] | 100 to 1000 | –
COc1ccc(C(C)NC(=O)c2c(C)oc3ncnc(NC4(C)CC4)c23)cc1F (stereo not shown) [Example 304, N-[1-(3-Fluoro-4-methoxyphenyl)ethyl]-6-methyl-4-[(1-methylcyclopropyl)amino]furo[2,3-d]pyrimidine-5-carboxamide] | – | >8
COc1ccc([C@H](C)NC(=O)c2c(C)oc3ncnc(NC4(C)CC4)c23)c(F)c1 [Example 305, N-[(1S)-1-(2-Fluoro-4-methoxyphenyl)ethyl]-6-methyl-4-[(1-methylcyclopropyl)amino]furo[2,3-d]pyrimidine-5-carboxamide] | 10 to 100 | –
COc1ccc([C@@H](C)NC(=O)c2c(C)oc3ncnc(NC4(C)CC4)c23)c(F)c1 [Example 306, N-[(1R)-1-(2-Fluoro-4-methoxyphenyl)ethyl]-6-methyl-4-[(1-methylcyclopropyl)amino]furo[2,3-d]pyrimidine-5-carboxamide] | – | >8
Cc1oc2ncnc(NC3(C)CC3)c2c1C(=O)N1CCc2cnc(F)nc2C1 [Example 307, 5-{2-Fluoro-5H,6H,7H,8H-pyrido[3,4-d]pyrimidine-7-carbonyl}-6-methyl-N-(1-methylcyclopropyl)furo[2,3-d]pyrimidin-4-amine] | 10 to 100 | –
Cc1oc2ncnc(NC3(C)CC3)c2c1C(=O)N1CCN(c2nc(Cl)c(Cl)c(Cl)c2Cl)CC1 [Example 308, 6-Methyl-N-(1-methylcyclopropyl)-5-[4-(tetrachloropyridin-2-yl)piperazine-1-carbonyl]furo[2,3-d]pyrimidin-4-amine] | 10 to 100 | –
Cc1oc2ncnc(NC3(C)CC3)c2c1C(=O)N1CCC(c2ncccn2)CC1 [Example 309, 6-Methyl-N-(1-methylcyclopropyl)-5-[4-(pyrimidin-2-yl)piperidine-1-carbonyl]furo[2,3-d]pyrimidin-4-amine] | – | >8
Cc1oc2ncnc(NC3(C)CC3)c2c1C(=O)NC1CCCc2cccnc21 (stereo not shown) [Example 310, 6-Methyl-4-[(1-methylcyclopropyl)amino]-N-(5,6,7,8-tetrahydroquinolin-8-yl)furo[2,3-d]pyrimidine-5-carboxamide] | 100 to 1000 | –
Cc1oc2ncnc(NC3(C)CC3)c2c1C(=O)NC1(c2cnccn2)CC1 [Example 311, 6-Methyl-4-[(1-methylcyclopropyl)amino]-N-[1-(pyrazin-2-yl)cyclopropyl]furo[2,3-d]pyrimidine-5-carboxamide] | 10 to 100 | –
Cc1oc2ncnc(NC3(C)CC3)c2c1C(=O)NCc1ccc(Cl)nc1 [Example 312, N-[(6-Chloropyridin-3-yl)methyl]-6-methyl-4-[(1-methylcyclopropyl)amino]furo[2,3-d]pyrimidine-5-carboxamide] | – | >8
Cc1oc2ncnc(NC3(C)CC3)c2c1C(=O)NCc1cnc(Cl)nc1 [Example 313, N-[(2-Chloropyrimidin-5-yl)methyl]-6-methyl-4-[(1-methylcyclopropyl)amino]furo[2,3-d]pyrimidine-5-carboxamide] | 10 to 100 | –
Cc1oc2ncnc(NC3(C)CC3)c2c1C(=O)N1CC(F)(c2ccccc2)C1 [Example 314, 5-(3-Fluoro-3-phenylazetidine-1-carbonyl)-6-methyl-N-(1-methylcyclopropyl)furo[2,3-d]pyrimidin-4-amine] | 10 to 100 | –
Cc1oc2ncnc(NC3(C)CC3)c2c1C(=O)NC(C)c1cnccn1 (stereo not shown) [Example 315, 6-Methyl-4-[(1-methylcyclopropyl)amino]-N-[1-(pyrazin-2-yl)ethyl]furo[2,3-d]pyrimidine-5-carboxamide] | 10 to 100 | –
Cc1oc2ncnc(NC3(C)CC3)c2c1C(=O)NC1CCc2cccnc21 (stereo not shown) [Example 316, N-{5H,6H,7H-Cyclopenta[b]pyridin-7-yl}-6-methyl-4-[(1-methylcyclopropyl)amino]furo[2,3-d]pyrimidine-5-carboxamide] | 100 to 1000 | –

SMILES | IC50 [nM] | PDE1b (pIC50)
Cc1oc2ncnc(NC3(C)CC3)c2c1C(=O)NC(C)c1ccncn1 (stereo not shown) [Example 317, 6-Methyl-4-[(1-methylcyclopropyl)amino]-N-[1-(pyrimidin-4-yl)ethyl]furo[2,3-d]pyrimidine-5-carboxamide] | 10 to 100 | –
Cc1oc2ncnc(NC3(C)CC3)c2c1C(=O)NCc1cc(Br)no1 [Example 318, N-[(3-Bromo-1,2-oxazol-5-yl)methyl]-6-methyl-4-[(1-methylcyclopropyl)amino]furo[2,3-d]pyrimidine-5-carboxamide] | 10 to 100 | –
Cc1cc(CNC(=O)c2c(C)oc3ncnc(NC4(C)CC4)c23)on1 [Example 319, 6-Methyl-N-[(3-methyl-1,2-oxazol-5-yl)methyl]-4-[(1-methylcyclopropyl)amino]furo[2,3-d]pyrimidine-5-carboxamide] | 10 to 100 | –
Cc1oc2ncnc(NC3(C)CC3)c2c1C(=O)N1CCC(c2nccn2C)C1 (stereo not shown) [Example 320, 6-Methyl-5-[3-(1-methyl-1H-imidazol-2-yl)pyrrolidine-1-carbonyl]-N-(1-methylcyclopropyl)furo[2,3-d]pyrimidin-4-amine] | 10 to 100 | –
Cc1oc2ncnc(NC3(C)CC3)c2c1C(=O)N1CCC(c2cnn(C)c2)C1 (stereo not shown) [Example 321, 6-Methyl-5-[3-(1-methyl-1H-pyrazol-4-yl)pyrrolidine-1-carbonyl]-N-(1-methylcyclopropyl)furo[2,3-d]pyrimidin-4-amine] | 10 to 100 | –
CCc1cc(CNC(=O)c2c(C)oc3ncnc(NC4(C)CC4)c23)no1 [Example 322, N-[(5-Ethyl-1,2-oxazol-3-yl)methyl]-6-methyl-4-[(1-methylcyclopropyl)amino]furo[2,3-d]pyrimidine-5-carboxamide] | – | >8
Cc1oc2ncnc(NC3(C)CC3)c2c1C(=O)NCc1cc(C2CC2)on1 [Example 323, N-[(5-Cyclopropyl-1,2-oxazol-3-yl)methyl]-6-methyl-4-[(1-methylcyclopropyl)amino]furo[2,3-d]pyrimidine-5-carboxamide] | – | >8
Cc1oc2ncnc(NC3(C)CC3)c2c1C(=O)NCc1cc(C(C)C)on1 [Example 324, 6-Methyl-4-[(1-methylcyclopropyl)amino]-N-{[5-(propan-2-yl)-1,2-oxazol-3-yl]methyl}furo[2,3-d]pyrimidine-5-carboxamide] | 10 to 100 | –
Cc1oc2ncnc(NC3(C)CC3)c2c1C(=O)NCc1cc(-c2ccc(F)cc2)on1 [Example 325, N-{[5-(4-Fluorophenyl)-1,2-oxazol-3-yl]methyl}-6-methyl-4-[(1-methylcyclopropyl)amino]furo[2,3-d]pyrimidine-5-carboxamide] | 10 to 100 | –
COc1ccc(-c2cc(CNC(=O)c3c(C)oc4ncnc(NC5(C)CC5)c34)no2)cc1 [Example 326, N-{[5-(4-Methoxyphenyl)-1,2-oxazol-3-yl]methyl}-6-methyl-4-[(1-methylcyclopropyl)amino]furo[2,3-d]pyrimidine-5-carboxamide] | 10 to 100 | –
COc1cnc(N2CCN(C(=O)c3c(C)oc4ncnc(NC5(C)CC5)c34)CC2)nc1 [Example 327, 5-[4-(5-Methoxypyrimidin-2-yl)piperazine-1-carbonyl]-6-methyl-N-(1-methylcyclopropyl)furo[2,3-d]pyrimidin-4-amine] | 10 to 100 | –
Cc1oc2ncnc(NC3(C)CC3)c2c1C(=O)NCc1cc(C(N)=O)on1 [Example 328, 3-[({6-Methyl-4-[(1-methylcyclopropyl)amino]furo[2,3-d]pyrimidin-5-yl}formamido)methyl]-1,2-oxazole-5-carboxamide] | 10 to 100 | –
Cc1oc2ncnc(NC3(C)CC3)c2c1C(=O)N1CCc2c(O)cccc2C1 [Example 329, 2-{6-Methyl-4-[(1-methylcyclopropyl)amino]furo[2,3-d]pyrimidine-5-carbonyl}-1,2,3,4-tetrahydroisoquinolin-5-ol] | – | >8
Cc1oc2ncnc(NC3(C)CC3)c2c1C(=O)N1CCc2cc(O)ccc2C1 [Example 330, 2-{6-Methyl-4-[(1-methylcyclopropyl)amino]furo[2,3-d]pyrimidine-5-carbonyl}-1,2,3,4-tetrahydroisoquinolin-6-ol] | 10 to 100 | –
Cc1oc2ncnc(NC3(C)CC3)c2c1C(=O)N1CCc2cccc(O)c2C1 [Example 331, 2-{6-Methyl-4-[(1-methylcyclopropyl)amino]furo[2,3-d]pyrimidine-5-carbonyl}-1,2,3,4-tetrahydroisoquinolin-8-ol] | 10 to 100 | –
Cc1oc2ncnc(NC3(C)CC3)c2c1C(=O)N1CCc2ccc(O)cc2C1 [Example 332, 2-{6-Methyl-4-[(1-methylcyclopropyl)amino]furo[2,3-d]pyrimidine-5-carbonyl}-1,2,3,4-tetrahydroisoquinolin-7-ol] | 10 to 100 | –
Cc1oc2ncnc(NC3(C)CC3)c2c1C(=O)N1CCc2ncc(O)cc2C1 [Example 333, 6-{6-Methyl-4-[(1-methylcyclopropyl)amino]furo[2,3-d]pyrimidine-5-carbonyl}-5,6,7,8-tetrahydro-1,6-naphthyridin-3-ol] | 100 to 1000 | –
